This experiment deals with Beta-secretase 1 (Homo sapiens, UniProt P56817). Put plainly: BACE-1 Inhibiiton Assay. On the procedure:
Beta-Secretase inhibition evaluations were carried out using a fluorescence resonance energy transfer (FRET) assay kit supplied by PanVera (kit P2985).

Each structure is given as a SMILES string.

Beta-secretase 1, sequence (P56817 whole entry): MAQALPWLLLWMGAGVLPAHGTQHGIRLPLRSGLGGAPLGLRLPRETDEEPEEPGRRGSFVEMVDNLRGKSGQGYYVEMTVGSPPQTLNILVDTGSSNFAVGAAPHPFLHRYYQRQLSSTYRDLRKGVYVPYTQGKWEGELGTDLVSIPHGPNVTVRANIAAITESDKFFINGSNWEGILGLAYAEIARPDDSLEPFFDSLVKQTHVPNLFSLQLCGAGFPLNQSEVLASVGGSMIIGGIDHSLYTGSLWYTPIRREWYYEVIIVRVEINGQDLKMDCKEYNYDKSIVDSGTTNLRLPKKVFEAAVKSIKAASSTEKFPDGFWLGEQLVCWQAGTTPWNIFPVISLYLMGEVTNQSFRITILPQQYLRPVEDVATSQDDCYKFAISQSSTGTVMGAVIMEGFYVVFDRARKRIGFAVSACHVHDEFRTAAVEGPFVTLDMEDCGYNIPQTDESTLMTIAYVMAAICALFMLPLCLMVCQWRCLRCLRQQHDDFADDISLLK

On to `COc1ccc(-c2nc(SCC(=O)Nc3nc(-c4ccccc4)cs3)[nH]c(=O)c2C#N)cc1` [B51], for which the IC50 turned out to be 4760 nM.

As to `O=C(NCc1ccc2c(c1)OCO2)c1cnc2cc(S(=O)(=O)Nc3cccc(C(F)(F)F)c3)ccc2c1O` [B53], the half-inhibitory concentration (IC50) turned out to be 310 nM.

These data come from BindingDB's records for doi:10.1111/j.1747-0285.2012.01367.x (Peking University Health Science Center, 2012).
